Series [1] has as its target T1, AADAC (arylacetamide deacetylase) (Homo sapiens, UniProt P22760).
T1 sequence (P22760 whole entry): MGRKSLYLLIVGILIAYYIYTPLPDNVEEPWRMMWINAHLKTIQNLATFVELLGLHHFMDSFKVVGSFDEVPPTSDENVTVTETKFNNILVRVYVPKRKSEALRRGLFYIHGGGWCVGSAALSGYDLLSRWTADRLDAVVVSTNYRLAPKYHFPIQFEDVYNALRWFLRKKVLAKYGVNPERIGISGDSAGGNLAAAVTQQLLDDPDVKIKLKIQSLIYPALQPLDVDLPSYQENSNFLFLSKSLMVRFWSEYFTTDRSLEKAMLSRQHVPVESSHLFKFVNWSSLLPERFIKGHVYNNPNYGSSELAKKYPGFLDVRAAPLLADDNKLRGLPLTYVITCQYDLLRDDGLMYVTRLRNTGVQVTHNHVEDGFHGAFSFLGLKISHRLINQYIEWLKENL
Briefly: Drug metabolism assessed as AADAC-mediated compound hydrolysis in human liver homogenates at 5 uM. In kind it is ADME, tissue-based. As to conditions: read-out: Drug metabolism.

Series [2] deals with T2, CES2 (cocaine esterase) (Homo sapiens, UniProt O00748).
T2 sequence (O00748 whole entry): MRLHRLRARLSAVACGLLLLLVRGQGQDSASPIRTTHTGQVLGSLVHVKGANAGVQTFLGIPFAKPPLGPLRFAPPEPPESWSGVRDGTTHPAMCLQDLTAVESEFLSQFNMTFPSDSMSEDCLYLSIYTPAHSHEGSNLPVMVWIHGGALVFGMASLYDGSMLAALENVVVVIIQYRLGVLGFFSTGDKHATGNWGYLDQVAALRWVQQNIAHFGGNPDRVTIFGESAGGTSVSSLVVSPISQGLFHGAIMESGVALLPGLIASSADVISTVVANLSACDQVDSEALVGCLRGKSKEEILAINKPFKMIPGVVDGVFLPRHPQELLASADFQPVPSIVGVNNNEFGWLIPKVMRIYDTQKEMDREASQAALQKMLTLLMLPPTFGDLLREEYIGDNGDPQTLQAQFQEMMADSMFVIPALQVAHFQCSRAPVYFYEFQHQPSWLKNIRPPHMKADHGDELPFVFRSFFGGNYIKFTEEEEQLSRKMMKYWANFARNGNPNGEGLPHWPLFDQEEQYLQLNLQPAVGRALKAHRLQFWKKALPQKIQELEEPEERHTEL
Briefly: Drug metabolism assessed as CES2-mediated compound hydrolysis in human liver homogenates at 200 uM. In kind it is ADME, tissue-based. The conditions noted are these: read-out: Drug metabolism.

Series [3] has as its target T2, CES2 (cocaine esterase). Put plainly: Drug metabolism assessed as loperamide-mediated inhibition of human recombinant CES2-mediated compound hydrolysis measured as enzyme activity at 5 uM relative to control. In kind it is ADME. More on the design: scale not given: the % may be the effect or the level left. As to conditions: recombinant CES2, with loperamide (concentration not clearly stated), read-out: Activity.

Series [4] addresses T3, Cocaine esterase (Homo sapiens, UniProt O00748).
T3 sequence (O00748 whole entry): T2 sequence (O00748 whole entry)
Briefly: Drug metabolism assessed as loperamide-mediated inhibition of CES2-mediated compound hydrolysis in human jejunum microsomes at 5 uM relative to control. More on the design: scale not given: the % may be the effect or the level left. In kind it is ADME.

Series [5] addresses T4, Arylacetamide deacetylase (Homo sapiens, UniProt P22760).
T4 sequence (P22760 whole entry): T1 sequence (P22760 whole entry)
Briefly: Drug metabolism assessed as human recombinant AADAC-mediated compound hydrolysis at 200 uM. In kind it is ADME.

Series [6] has as its target T3, Cocaine esterase. Briefly: Drug metabolism assessed as human recombinant CES2-mediated compound hydrolysis at 5 uM. In kind it is ADME. As to conditions: recombinant enzyme.
In series [7] the target is T3, Cocaine esterase. Put plainly: Drug metabolism assessed as loperamide-mediated inhibition of CES2-mediated compound hydrolysis in human liver microsomes at 5 uM relative to control. In kind it is ADME. More on the design: scale not given: the % may be the effect or the level left. Background: Liver microsomes are vesicles of endoplasmic reticulum, rich in cytochrome P450 enzymes.

The target of series [8] is T1, AADAC (arylacetamide deacetylase). Briefly: Drug metabolism assessed as loperamide-mediated inhibition of human recombinant AADAC-mediated compound hydrolysis expressed in SF21 cells measured as enzyme activity at 5 uM relative to control. In kind it is ADME. On the set-up: scale not given: the % may be the effect or the level left. As to conditions: with loperamide (concentration not clearly stated), read-out: Activity.

In series [9] the target is T5, Liver carboxylesterase 1 (Homo sapiens, UniProt P23141).
T5 sequence (P23141 whole entry): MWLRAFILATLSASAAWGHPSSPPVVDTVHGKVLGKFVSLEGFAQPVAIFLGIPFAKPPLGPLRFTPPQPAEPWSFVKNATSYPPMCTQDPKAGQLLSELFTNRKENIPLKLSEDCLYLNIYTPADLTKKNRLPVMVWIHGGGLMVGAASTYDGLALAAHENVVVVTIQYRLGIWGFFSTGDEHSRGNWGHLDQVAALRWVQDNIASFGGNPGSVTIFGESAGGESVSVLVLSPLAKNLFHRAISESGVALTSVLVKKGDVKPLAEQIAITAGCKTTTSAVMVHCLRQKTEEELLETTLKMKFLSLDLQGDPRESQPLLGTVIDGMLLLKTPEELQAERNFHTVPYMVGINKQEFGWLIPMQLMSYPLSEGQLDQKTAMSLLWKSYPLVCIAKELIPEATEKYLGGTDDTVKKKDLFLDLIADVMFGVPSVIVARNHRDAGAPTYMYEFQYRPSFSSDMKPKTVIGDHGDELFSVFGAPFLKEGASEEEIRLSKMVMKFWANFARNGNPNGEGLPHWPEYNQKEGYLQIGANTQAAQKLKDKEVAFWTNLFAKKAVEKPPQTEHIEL
Put plainly: Drug metabolism assessed as human recombinant CES1-mediated compound hydrolysis at 5 uM. In kind it is ADME. The conditions noted are these: recombinant enzyme.

Series [10] deals with T1, AADAC (arylacetamide deacetylase). Briefly: Drug metabolism assessed as AADAC-mediated compound hydrolysis in human liver homogenates at 200 uM. In kind it is ADME, tissue-based. The conditions noted are these: read-out: Drug metabolism.
Series [11] has as its target T3, Cocaine esterase. Briefly: Drug metabolism assessed as human recombinant CES2-mediated compound hydrolysis at 200 uM. In kind it is ADME. As to conditions: recombinant enzyme.
Series [12] addresses T4, Arylacetamide deacetylase. Briefly: Drug metabolism assessed as human recombinant AADAC-mediated compound hydrolysis at 5 uM. In kind it is ADME.
Series [13] deals with T2, CES2 (cocaine esterase). Briefly: Drug metabolism assessed as CES2-mediated compound hydrolysis in human liver homogenates at 5 uM. In kind it is ADME, tissue-based. The conditions noted are these: read-out: Drug metabolism.
Series [14] addresses T2, CES2 (cocaine esterase). Put plainly: Drug metabolism assessed as CES2-mediated compound hydrolysis in human liver homogenates at 50 uM. In kind it is ADME, tissue-based. As to conditions: read-out: Drug metabolism.
Series [15] has as its target T3, Cocaine esterase. Put plainly: Drug metabolism assessed as loperamide-mediated inhibition of CES2-mediated compound hydrolysis in human liver cytosol at 5 uM relative to control. More on the design: scale not given: the % may be the effect or the level left. In kind it is ADME, tissue-based.
The target of series [16] is T3, Cocaine esterase. Put plainly: Intrinsic clearance assessed as ratio of Vmax to Km for human recombinant CES2. In kind it is ADME. The conditions noted are these: recombinant enzyme.
Series [17] has as its target T3, Cocaine esterase. Briefly: Inhibition of human recombinant CES2 assessed as compound hydrolysis.
For series [18], the target named is T1, AADAC (arylacetamide deacetylase). Briefly: Drug metabolism assessed as AADAC-mediated compound hydrolysis in human liver homogenates at 5 to 200 uM. In kind it is ADME, tissue-based. As to conditions: read-out: Drug metabolism.
In series [19] the target is T3, Cocaine esterase. Briefly: Drug metabolism assessed as human recombinant CES2-mediated compound hydrolysis at 50 uM. In kind it is ADME. As to conditions: recombinant enzyme.
Series [20] deals with T3, Cocaine esterase. Briefly: Drug metabolism assessed as CES2-mediated compound hydrolysis in human liver homogenates at 5 to 200 uM. In kind it is ADME, tissue-based. As to conditions: tissue homogenate.
The target in series [21] is T4, Arylacetamide deacetylase. Briefly: Drug metabolism assessed as human recombinant AADAC-mediated compound hydrolysis expressed in SF21 cells at 50 uM. In kind it is ADME. As to conditions: sf21, 50 µM.
Series [22] addresses T1, AADAC (arylacetamide deacetylase). Put plainly: Drug metabolism assessed as AADAC-mediated compound hydrolysis in human liver homogenates at 50 uM. In kind it is ADME, tissue-based. As to conditions: read-out: Drug metabolism.
Series [23] concerns the target T3, Cocaine esterase. Briefly: Drug metabolism assessed as human recombinant CES2-mediated compound hydrolysis at 2 uM. In kind it is ADME. As to conditions: recombinant enzyme.

As usually defined, the Ki is a measure of affinity in units of concentration, obtained from inhibition or displacement.

On to `CC(C)C(=O)Nc1ccc([N+](=O)[O-])c(C(F)(F)F)c1` [FLUTAMIDE], for which the values for the metabolised at 5 µM in series [1] and in series [13] were 11.7% and 88.3%, respectively. The figures for the metabolised at 200 µM in series [2] and in [10] were 10.6% and 89.4%, respectively. For the same molecule, the results for the activity at 5 µM in series [3] and in series [8] were 7.7% and 74.7%, respectively. Also, the Activity was found to be 18.6% in series [4], 22.9% in [7] and 15.7% in series [15]. In addition, the Drug metabolism in series [5] was 389 pmol/min/mg; in [6], 16 pmol/min/mg; in series [9], “metabolite_not_detected”; in [11], 13.5 pmol/min/mg; in series [12], 3.1 pmol/min/mg; in series [19], 38.9 pmol/min/mg. For the same molecule, the Drug metabolism in [20] is on record as 170.4%; in [21], 87.6 pmol/min/mg. Further, the metabolised at 50 µM in [14] turned out to be 47%; in [22], 53%. Further, the Ratio in series [16] is 4.2 µL/min/mg. The Ki in series [17] was found to be 2300 nM. The metabolised at up to 200 µM in series [18] was 79.6%.
In the case of `CO[C@H]1/C=C/O[C@@]2(C)Oc3c(C)c(O)c4c(O)c(c(/C=N/N5CCN(C)CC5)c(O)c4c3C2=O)NC(=O)/C(C)=C\C=C\[C@H](C)[C@H](O)[C@@H](C)[C@@H](O)[C@@H](C)[C@H](OC(C)=O)[C@@H]1C` [RIFAMPIN], the Drug metabolism in [23] is on record as 2.99 pmol/min/mg; in series [21], 41.77 pmol/min/mg.

The record behind these values is ChEMBL document CHEMBL3526158, “Contributions of arylacetamide deacetylase and carboxylesterase 2 to flutamide hydrolysis in human liver” (Drug Metab Dispos, 2012).
